US10137115B2, “Therapeutic inhibitor for EBV-associated tumor with tailor responsive optical imaging” (priority 2016, dated 2018)
“Also recorded” adds a separate entry of the source. Non-standard residues stand in square brackets, D forms with d. Residues, ends and D or L forms follow the SMILES beside them. No end group written: not given here. *: point of attachment. X1 = CCN(CC)c1ccc(/C=C/c2cc[n+](CC(=O)*)cc2)cc1; Ahx = NCCCCCC(=O)O

Experiments:
[1] = test system: EBV-positive (C666-1 and NPC43) and EBV-negative (CNE2 and HeLa) cell lines; experiment: In vitro confocal imaging and co-staining; assay type: cell-based, human; details: 10 μM, 6 h
Procedure: HeLa is EBV-negative human cervical carcinoma cells, CNE2 is EBV-negative nasopharyngeal carcinoma cells, C666-1 is EBV-positive nasopharyngeal carcinoma cells, and NPC 43 is the newly derived EBV-positive nasopharyngeal carcinoma cells.
The cells are incubated with 6 hours before monitoring imaging.

WT-EBNA1 [2] = target: T1, WT-EBNA1 (Epstein-Barr virus, UniProt P03211); experiment: biochemical; assay type: binding; parameters: Wild type EBNA1 protein (379-641 a.a.) fusing with glutathione S-transferase is expressed in Escherichia coli; GST (glutathione S-transferase); made in house; host or cells: Escherichia coli (BL21); details: for emission intensity increase on addition of WT-EBNA1: 4 μM WT-EBNA1, PBS buffer
Procedure: Bind constant via luminescence titration: Luminescence titration analysis is conducted with gradually addition of WT EBNA1 to evaluate the binding constants between the three peptide conjugates and WT EBNA1. […] The binding constants for Ka are obtained from the double logarithm regression curve: lg[(I−I0)/I0]=lg Ka+n lg[G] equation 2
Where I and I0 are current and initial fluorescence, respectively, Ka is the binding constant, n is the number of binding sites per WT EBNA1, and [G] is total concentration of WT EBNA1.
Protein samples preparation. Five protein samples are used.

[3] = Emission quantum yield in water, comparative method using rhodamine 6G; assay type: physicochemical; details: λex=480 nm, without WT-EBNA1
Procedure: Quantum yields of L2Pn are evaluated by the following equation 1: […]
Where the subscripts r and s denote reference and sample respectively, ϕ is the quantum yield, G is the slope from the plot integrated emission intensity vs absorbance, and η is the refractive index of the solvent. The correction curve is obtained by comparing the experimentally recorded spectrum of the standard rhodamine 6G with the published data.

WT-EBNA1 [4] = target: T1, WT-EBNA1; experiment: Emission quantum yield in the presence of WT-EBNA1; details: in water, saturated WT-EBNA1, λex=480 nm

T1 sequence (P03211 379-641): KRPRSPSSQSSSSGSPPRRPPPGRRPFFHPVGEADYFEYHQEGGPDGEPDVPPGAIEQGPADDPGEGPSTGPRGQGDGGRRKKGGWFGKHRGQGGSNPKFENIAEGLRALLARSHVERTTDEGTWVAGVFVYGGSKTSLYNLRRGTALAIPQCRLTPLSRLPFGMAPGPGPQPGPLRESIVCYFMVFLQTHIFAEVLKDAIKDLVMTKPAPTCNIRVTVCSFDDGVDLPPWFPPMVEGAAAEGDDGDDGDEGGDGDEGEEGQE

Compound	subcellular localization in EBV-positive cells [1]	Kd (WT-EBNA1 [2]) [µM]	selectivity towards WT-EBNA1 (emission enhancement vs other proteins, ions) (WT-EBNA1 [2]; 2 μM in PBS buffer, vs BSA, mutant EBNA1, ZnCl2, NaHCO3, CuCl2, citrates)	emission intensity increase on addition of WT-EBNA1 (WT-EBNA1 [2])	emission quantum yield [3] [%]	emission quantum yield + WT EBNA1 (WT-EBNA1 [4]) [%]
CCN(CC)c1ccc(/C=C/c2cc[n+](CC(=O)N[C@@H](CS)C(=O)NCCCCCC(=O)N[C@@H](CCCNC(=N)N)C(=O)N[C@H](CCCNC(=N)N)C(=O)N[C@@H](CCCNC(=N)N)C(=O)N[C@@H](CCCCN)C(=O)NCC(=O)NCC(=O)N[C@@H](Cc3ccc(O)cc3)C(=O)N[C@@H](Cc3ccccc3)C(=O)N[C@@H](CCSC)C(=O)N[C@H](C(=O)N[C@@H](Cc3ccccc3)C(N)=O)C(C)C)cc2)cc1 [L2P3] (X1-C[Ahx]R[dR]RKGGYFMVF-NH2)	can goes into C666-1 cell nucleus; also recorded: nuclear localization	3.16	selective towards WT-EBNA1	4.7 fold	4.3	13.0
L2P2: peptide conjugate of L2 (4-(4-(Diethylamino)styryl)-N-carboxymethylpyridinium chloride) and peptide P2 YFMVF (also: conjugated to L2, site not given here)	cytoplasm location only; also recorded: only found in the cytoplasm			no intensity change; also recorded: did not show any enhancements	4.4	3.8
